According to patent US11760889B2, “Unsaturated fatty alcohol derivatives from natural oil metathesis” (priority 2012, dated 2023):
Read-outs that look alike come from different tables or passages of the source.

Tests used:
[1] = Anionic emulsifier: emulsion stability testing of EW concentrate (modified ASTM E1116-98)
Procedure: Turbidity changes are noted and recorded.
A Mohr pipette is used to feed EW concentrate to each cylinder. Cylinders are stoppered and inverted ten times, then allowed to stand for 0.5, 1, and 24 h while recording stability at each time as type and % separation.
Spontaneity is recorded according to the following criteria: (1) poor: very thin emulsion cloud with major separation of oil droplets; (2) fair: thin emulsion cloud with minor separation of oil droplets; (3) good: thin emulsion cloud reaches the bottom of the cylinder without separation of any type; (4) excellent: thick emulsion cloud reaches the bottom of the cylinder without separation of any type.

[2] = Water-soluble herbicide formulation testing (standard dilution test, emulsion stability); type: physicochemical; parameters: key to Emulsion stability, mL separation, 24 h: Tr = trace; conditions: 342 ppm water;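 note: diluted in a 50 mL Nessler cylinder held at 30 °C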
Procedure: Surfactant candidates for water soluble herbicide applications are examined as a replacement for the anionic, nonionic, or anionic/nonionic blend portion and compared to a known industry adjuvant standard for use in paraquat, a water soluble herbicide concentrate formulation. A standard dilution test is conducted whereby the concentrates are diluted in water to determine if solubility is complete.
The cylinder is stoppered and inverted ten times. Solubility is recorded as complete or incomplete. Cylinders are allowed to stand and the amount (in mL) and type of separation are recorded after 30 min., 1 h, 2 h, and 24 h. Results of the solubility testing appear in Table 3 below.
An eight to ten mole alkyl phenol ethoxylate surfactant (0.7 g) is added and vigorously mixed for 30 s. Test sample (0.7 g) is added and mixing resumes for 30 s.
Test sample (0.7 g) is added and vigorously mixed for 30 s. Sodium linear alkylbenzene sulfonate (“NaLAS,” 0.7 g) is added and mixing resumes for 30 s.

[3] = Surfactant phase behavior study (cross-polarized microscopy); type: physicochemical; conditions: room temperature (20-22° C.)
Procedure: Phase behavior is observed using an Olympus BH-2 cross-polarized microscope at 100-400× and room temperature (20° C. to 22° C.). The inventive monounsaturated sulfates and ethoxylate sulfates are compared with their saturated analogs, and in some cases, commercial surfactants.
Samples are prepared by diluting the most concentrated product gradually with deionized water. When the surfactant concentration approaches a phase transition, the concentration is varied at 2-4% intervals to estimate the phase boundary. The actives level reported in Table 15 for each phase boundary is within ±5% of the true boundary.
Samples are loaded between a microscope slide and cover glass and are allowed to equilibrate before observation. Microscopic texture is analyzed and used to determine the phase. For some samples, an AR 2000 rheometer (TA Instruments) is used to measure viscosity at 25° C. to further verify phase behavior.

[4] = Emulsion polymerization surfactant screen
Procedure: A reaction kettle is charged with sodium bicarbonate (0.50 g), water (225 g), and seed latex (30 g) and the mixture is heated to and held at 83° C. under nitrogen with stirring at 200 rpm. […] Methyl methacrylate (255 g), butyl acrylate (235 g), and methacrylic acid (10 g) are combined in an Erlenmeyer flask and mixed. […] Separately, two other mixtures are prepared: an initiator shot mixture of ammonium persulfate (1.0 g) in water (20 g), and a cofeed mixture of ammonium persulfate (2.70 g), sodium bicarbonate (1.50 g), and water (75 g); the total amount of initiator used is 0.74% based on monomers. The initiator shot is charged to the 83° C. reaction kettle dropwise over 1 min, then held for 10 min. The monomer emulsion is then fed to the kettle at 2.1 mL/min. for 10 min. The feed rate of the monomer emulsion is increased to 4.2 mL/min., and the cofeed mixture is started at 0.37 mL/min. Total addition time is 3 h, during which particle size and temperature are monitored. After addition of the monomer emulsion is complete, a water wash (50 g) is started, and heating at 83° C. continues for 1 h. The product is cooled. The pH is adjusted to 7.5 with dilute ammonium hydroxide solution. A preservative is added, and the mixture is filtered.

[5] = Adjuvant (anionic/nonionic) test sample

Row | Compound | pre-emulsion stability [4] | % Separation, 1 h ([1]; 34 ppm water) [%] | % Separation, 24 h ([1]; 34 ppm water) [%] | % Separation, 1 h ([1]; 1000 ppm water) [%] | % Separation, 24 h ([1]; 1000 ppm water) [%] | Emulsion stability, mL separation, 1 h [2, 5] [mL] | Emulsion stability, mL separation, 24 h [2, 5] | Emulsion stability, mL separation, 1 h ([2]; Anionic test sample) [mL] | Emulsion stability, mL separation, 24 h ([2]; Anionic test sample) [mL] | Emulsion stability, mL separation, 1 h ([2]; Nonionic test sample) [mL] | Emulsion stability, mL separation, 24 h ([2]; Nonionic test sample) | Estimated Phase Region: Cubic [3] | Estimated Phase Region: Hexagonal [3] | Estimated Phase Region: Isotropic Clear [3] | Estimated Phase Region: Lamellar [3] | Estimated Phase Region: Solid/gum/paste [3] | Estimated Phase Region: Unknown [3] | pre-emulsion stability ([4]; surfactant level in EP 0.50%)
1 | 3 Mole Ethoxylated C12 Alcohol, Sodium Sulfate [A12-9] |  | 3.3 | 4.2 | 2.1 | 3 | 0 | 0 mL | 0 | 0 | 0 | 0 mL | 60-68 % actives | 31-60 % actives | 0-31 % actives | 68-87 % actives | 87-100 % actives |  | 
2 | C=CCCCCCCCCOS(=O)(=O)O.N [A10-2] |  | 3.8 | 4 | 3.1 | 3.8 | 0 | 0 mL | 0 | 0 | 0 | Tr |  | 42-64 % actives |  | 64-80 % actives | 80-100 % actives | 0-42 % actives | 
3 | C=CCCCCCCCCOS(=O)(=O)[O-].[Na+] [A10-3] |  | 4 | 4 | 3 | 3.1 | 0 | 0 mL | 0 | 0 | 0 | Tr |  | 43-70 % actives | 0-43 % actives | 70-81 % actives | 81-100 % actives |  | 
4 | CCCCCCCCCCCCOS(=O)(=O)[O-].[Na+] [sat. analog of A12-3, reference compound] |  |  |  |  |  |  |  |  |  |  |  |  |  | 0-31 % actives |  | 31-100 % actives |  | 
5 | CCCCCCCCCCCCOCCOCCOCCOS(=O)(=O)[O-].[Na+] [sat. analog of A12-9, reference compound] |  |  |  |  |  |  |  |  |  |  |  |  | 24-60 % actives | 0-24 % actives | 60-78 % actives | 78-100 % actives |  | 
6 | C12 Alcohol Ammonium Sulfate [A12-2] |  | 4 | 4.2 | 2.5 | 3.2 |  |  |  |  |  |  |  | 33-70 % actives | 0-33 % actives | 70-83 % actives | 83-100 % actives |  | 
7 | C12 Alcohol Sodium Sulfate [A12-3] |  | 4.5 | 5.7 | 3 | 4 | 0 | Tr | 0 | 0 | 0 | Tr |  | 38-66 % actives | 0-38 % actives | 66-83 % actives | 83-100 % actives |  | stable
8 | calcium alkylbenzenesulfonate [Control 1] | stable |  |  |  |  |  |  |  |  |  |  |  |  |  |  |  |  | 
